Where two headings read alike, the source gives them in different places.
Tests used:
cancer cell lines = experiment: Cancer cell proliferation activity (CellTiterGlo, 72 h); type: cell-based; details: for IC50: 72 h, read-out: IC50 cell proliferation
Procedure, shortened: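 Cells seeded overnight at 37 °C, then dosed with compound at 0.1% final DMSO and incubated 72 h at 37 °C (5% or 10% CO2 by medium).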

[1] = molecular target: human cytidine deaminase (CDA) (Homo sapiens, UniProt P32320); experiment: Metabolism by human cytidine deaminase (CDA), substrate absorbance at 290 nm
Sequence of human cytidine deaminase (CDA) (P32320 whole entry): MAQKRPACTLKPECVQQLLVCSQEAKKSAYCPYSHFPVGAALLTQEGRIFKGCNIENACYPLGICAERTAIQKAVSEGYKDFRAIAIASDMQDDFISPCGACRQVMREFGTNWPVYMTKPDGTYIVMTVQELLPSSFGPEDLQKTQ

- IC50 (cancer cell lines; 5637 (bladder)): 4 nM
- IC50 (cancer cell lines; CLS439 (bladder)): > 50000 nM
- IC50 (cancer cell lines; HS729 (muscle)): > 50000 nM
- IC50 (cancer cell lines; J82 (bladder)): 216 nM
- IC50 (cancer cell lines; JAR (placenta)): > 50000 nM
- IC50 (cancer cell lines; MT3 (breast)): 16 nM
- IC50 (cancer cell lines; PANCI (pancreas)): > 50000 nM
- IC50 (cancer cell lines; PC3 (prostate)): > 50000 nM
- IC50 (cancer cell lines; RD (muscle)): 66 nM
- IC50 (cancer cell lines; T24 (bladder)): 98 nM
- IC50 (cancer cell lines; Homo sapiens, 22Rv1, 72 h, 22RV1 (prostate)): 84 nM
- IC50 (cancer cell lines; Homo sapiens, 786-0, 72 h, 786O (kidney)): > 50000 nM
- IC50 (cancer cell lines; Homo sapiens, A204, 72 h, A204 (muscle)): 716 nM
- IC50 (cancer cell lines; Homo sapiens, A549, 72 h, A549 (lung)): 75 nM
- IC50 (cancer cell lines; Homo sapiens, A673, 72 h, A673 (bone)): 110 nM
- IC50 (cancer cell lines; Homo sapiens, A2780, 72 h, A2780 (ovary)): 213 nM
- IC50 (cancer cell lines; Homo sapiens, A-375, 72 h, A375 (skin)): 183 nM
- IC50 (cancer cell lines; Homo sapiens, A-431, 72 h, A431 (skin)): 2 nM
- IC50 (cancer cell lines; Homo sapiens, ACHN, ACHN (kidney)): 12 nM
- IC50 (cancer cell lines; Homo sapiens, ASPC1, 72 h, ASPC1 (pancreas)): 11 nM
- IC50 (cancer cell lines; Homo sapiens, BT-20, 72 h, BT20 (breast)): > 50000 nM
- IC50 (cancer cell lines; Homo sapiens, BXPC-3, 72 h, BXPC3 (pancreas)): 0.4 nM
- IC50 (cancer cell lines; Homo sapiens, C-33-A, C33A (endometrial)): 47 nM
- IC50 (cancer cell lines; Homo sapiens, CAKI-1, 72 h, CAKI1 (kidney)): > 50000 nM
- IC50 (cancer cell lines; Homo sapiens, COLO 205, 72 h, COLO205 (colon)): 18 nM
- IC50 (cancer cell lines; Homo sapiens, COLO-678, 72 h, COLO678 (colon)): > 50000 nM
- IC50 (cancer cell lines; Homo sapiens, Ca-Ski, CASKI (endometrial)): > 50000 nM
- IC50 (cancer cell lines; Homo sapiens, Caco-2, 72 h, CACO2 (colon)): > 50000 nM
- IC50 (cancer cell lines; Homo sapiens, Calu-6, 72 h, CALU6 (lung)): 76 nM
- IC50 (cancer cell lines; Homo sapiens, DLD-1, 72 h, DLD1 (colon)): 8970 nM
- IC50 (cancer cell lines; Homo sapiens, DU-145, 72 h, DU145 (prostate)): 425 nM
- IC50 (cancer cell lines; Homo sapiens, EFO-21, 72 h, EFO21 (ovary)): > 50000 nM
- IC50 (cancer cell lines; Homo sapiens, EJ-28, 72 h, EJ28 (bladder)): 66 nM
- IC50 (cancer cell lines; Homo sapiens, Granta-519, 72 h, GRANTA-519 (hematological)): 10 nM
- IC50 (cancer cell lines; Homo sapiens, HCT-15, 72 h, HCT15 (colon)): 1380 nM
- IC50 (cancer cell lines; Homo sapiens, HCT-116, 72 h, HCT116 (colon)): 1110 nM
- IC50 (cancer cell lines; Homo sapiens, HEK293, 72 h, HEK293 (kidney)): > 50000 nM
- IC50 (cancer cell lines; Homo sapiens, HL-60, 72 h, HL-60 (hematological)): 247 nM
- IC50 (cancer cell lines; Homo sapiens, HT-29, 72 h, HT29 (colon)): 60 nM
- IC50 (cancer cell lines; Homo sapiens, HT-1080, 72 h, HT1080 (connective tissue)): 46 nM
- IC50 (cancer cell lines; Homo sapiens, HeLa, HELA (endometrial)): > 50000 nM
- IC50 (cancer cell lines; Homo sapiens, HepG2, 72 h, HEPG2 (liver)): 89 nM
- IC50 (cancer cell lines; Homo sapiens, Hs-578T, HS578T (breast)): > 50000 nM
- IC50 (cancer cell lines; Homo sapiens, IGROV-1, 72 h, IGROV1 (ovary)): 1590 nM
- IC50 (cancer cell lines; Homo sapiens, IMR-90, 72 h, IMR90 (lung)): > 50000 nM
- IC50 (cancer cell lines; Homo sapiens, JEG-3, 72 h, JEG3 (placenta)): 37 nM
- IC50 (cancer cell lines; Homo sapiens, JIMT-1, 72 h, JIMT1 (breast)): > 50000 nM
- IC50 (cancer cell lines; Homo sapiens, K562, 72 h, K-562 (hematological)): > 50000 nM
- IC50 (cancer cell lines; Homo sapiens, Kasumi 1, 72 h, KASUMI-1 (hematological)): 76 nM
- IC50 (cancer cell lines; Homo sapiens, L-363, 72 h, L-363 (hematological)): > 50000 nM
- IC50 (cancer cell lines; Homo sapiens, LoVo, LOVO (colon)): 6 nM
- IC50 (cancer cell lines; Homo sapiens, MCF7, 72 h, MCF7 (breast)): 181 nM
- IC50 (cancer cell lines; Homo sapiens, MDA-MB-231, 72 h, MDAMB231 (breast)): > 50000 nM
- IC50 (cancer cell lines; Homo sapiens, MDA-MB-435, 72 h, MDAMB435 (skin)): 924 nM
- IC50 (cancer cell lines; Homo sapiens, MDA-MB-436, 72 h, MDAMB436 (breast)): 41 nM
- IC50 (cancer cell lines; Homo sapiens, MDA-MB-468, 72 h, MDAMB468 (breast)): > 50000 nM
- IC50 (cancer cell lines; Homo sapiens, MG-63, 72 h, MG63 (bone)): 361 nM
- IC50 (cancer cell lines; Homo sapiens, MHH-ES-1, 72 h, MHHES1 (bone)): 2560 nM
- IC50 (cancer cell lines; Homo sapiens, MIA PaCa-2, 72 h, MIAPACA2 (pancreas)): 904 nM
- IC50 (cancer cell lines; Homo sapiens, MINO, MINO (hematological)): 2 nM
- IC50 (cancer cell lines; Homo sapiens, MV4-11, 72 h, MV4-11 (hematological)): 44 nM
- IC50 (cancer cell lines; Homo sapiens, NCI-H23, 72 h, NCI-H23 (lung)): 334 nM
- IC50 (cancer cell lines; Homo sapiens, NCI-H82, 72 h, NCIH82 (lung)): 87 nM
- IC50 (cancer cell lines; Homo sapiens, NCI-H292, 72 h, NCIH292 (lung)): 114 nM
- IC50 (cancer cell lines; Homo sapiens, NCI-H460, 72 h, NCIH460 (lung)): 61 nM
- IC50 (cancer cell lines; Homo sapiens, OVCAR-3, 72 h, OVCAR3 (ovary)): > 50000 nM
- IC50 (cancer cell lines; Homo sapiens, OVCAR-4, 72 h, OVCAR4 (ovary)): > 50000 nM
- IC50 (cancer cell lines; Homo sapiens, PLC-PRF-5, 72 h, PLCPRF5 (liver)): > 50000 nM
- IC50 (cancer cell lines; Homo sapiens, Panc1005, 72 h, PANC1005 (pancreas)): > 50000 nM
- IC50 (cancer cell lines; Homo sapiens, Ramos, RAMOS (hematological)): 292 nM
- IC50 (cancer cell lines; Homo sapiens, SAOS-2, 72 h, SAOS2 (bone)): 6 nM
- IC50 (cancer cell lines; Homo sapiens, SF-268, 72 h, SF268 (brain)): 187 nM
- IC50 (cancer cell lines; Homo sapiens, SF-295, 72 h, SF295 (brain)): > 50000 nM
- IC50 (cancer cell lines; Homo sapiens, SK-BR-3, 72 h, SKBR3 (breast)): 5 nM
- IC50 (cancer cell lines; Homo sapiens, SK-HEP1, 72 h, SKHEP1 (liver)): 1320 nM
- IC50 (cancer cell lines; Homo sapiens, SK-LMS-1, 72 h, SKLMS1 (uterus)): 298 nM
- IC50 (cancer cell lines; Homo sapiens, SK-MEL-5, 72 h, SKMEL5 (skin; SKMELS [sic] in Table 9E)): > 50000 nM
- IC50 (cancer cell lines; Homo sapiens, SK-MEL-28, 72 h, SKMEL28 (skin)): > 50000 nM
- IC50 (cancer cell lines; Homo sapiens, SK-N-AS, SKNAS (brain)): > 50000 nM
- IC50 (cancer cell lines; Homo sapiens, SK-N-SH, SKNSH (brain)): > 50000 nM
- IC50 (cancer cell lines; Homo sapiens, SK-OV-3, 72 h, SKOV3 (ovary)): 71 nM
- IC50 (cancer cell lines; Homo sapiens, SNB-75, 72 h, SNB75 (brain)): > 50000 nM
- IC50 (cancer cell lines; Homo sapiens, SU-DHL10, 72 h, SU-DHL-10 (hematological)): 1160 nM
- IC50 (cancer cell lines; Homo sapiens, SU-DHL-6, 72 h, SU-DHL-6 (hematological)): 143 nM
- IC50 (cancer cell lines; Homo sapiens, SW-620, 72 h, SW620 (colon)): 82 nM
- IC50 (cancer cell lines; Homo sapiens, TE-671, 72 h, TE671 (muscle)): 82 nM
- IC50 (cancer cell lines; Homo sapiens, THP-1, 72 h, THP-1 (hematological)): 131 nM
- IC50 (cancer cell lines; Homo sapiens, U2OS, U20S (bone; U2OS in Table 9E)): > 50000 nM
- IC50 (cancer cell lines; Homo sapiens, U-87 MG, U87MG (brain)): > 50000 nM
- IC50 (cancer cell lines; Homo sapiens, UMUC3, 72 h, UMUC3 (bladder)): 228 nM
- IC50 (cancer cell lines; Homo sapiens, UO-31, 72 h, UO31 (kidney)): > 50000 nM
- IC50 (cancer cell lines; Homo sapiens, WSU-NHL, WSU-NHL (hematological)): 448 nM
- IC50 (cancer cell lines; NCI-H358M, NCIH358M (lung)): 19 nM
- IC50 (cancer cell lines; PBMC, PBMC (hematological)): 3020 nM
- IC50 (cancer cell lines; RD-ES, RDES (bone)): 10400 nM
- metabolism (deamination) by human CDA (line graph) ([1]; 12 nM CDA, 50 and 200 uM substrate, 37° C., pH 7.5, figure legends FIG. 4-9): not metabolized
- substrate conversion by CDA (Inactive) ([1]; rate of substrate conversion at 200 μM, could not be fitted): Inactive
Structure (SMILES): Nc1nc(=O)n([C@H]2C[C@H](O)[C@](CO)(CF)O2)cc1F [Cpd. No. 197, 4-amino-5-fluoro-1-((2R,4S,5R)-5-(fluoromethyl)-4-hydroxy-5-(hydroxymethyl)tetrahydrofuran-2-yl)pyrimidin-2(1H)-one]
- cytotoxicity against a panel of cell lines (waterfall plot) (cancer cell lines; panel of cancer and non-cancer cell lines, figure legends FIG. 1-3): selectively cytotoxic in cancer cell lines with high DDR activity
